Experimental data as given in article PMC6396024, “Artemin and an Artemin-Derived Peptide, Artefin, Induce Neuronal Survival, and Differentiation Through Ret and NCAM” (Frontiers in Molecular Neuroscience, 2019).
Bridge positions count the residues as written; N and C are the ends. Ends that are not written are not given here. I, II: the chains in the order shown.

B1: recombinant human Artemin (ARTN) (ligand, UniProt Q5T4W7 108-220, looked up)
chain: AGGPGSRARAAGARGCRLRSQLVPVRALGLGHRSDELVRFRFCSGSCRRARSPHDLSLASLLGAGALRPPPGSRPVSQPCCRPTRYEAVSFMDVNSTWRTVDRLSATACGCLG
notes: Artemin (ARTN), human, UniProt D3DPX9; source: bought: R&D Systems

How the values were obtained:
[1] = test system: RET; cerebellar granule neurons (CGNs); test: Neurite outgrowth in CGNs transfected with dominant negative RET (dnRET); type: cell-based, Wistar rat; conditions: 24 h, P2-d 8 μg/ml, ARTN 0.21 nM, artefin 1.4 μM; for neurite outgrowth in mock-transfected neurons: empty vector, versus control
Method: (§1) Cerebellar granule neurons (CGNs) were prepared from 7-day-old Wistar rat pups (Charles River Laboratories, Sulzfeld, Germany) as previously described ([Schousboe et al., 1989]). Briefly, pups were decapitated, and the cerebellum was removed and cleared from blood vessels and meninges in ice-cold modified Krebs-Ringer buffer. The cerebellum was dissociated by chopping and trypsinization. Cells were washed in Krebs-Ringer buffer containing DNAse I (Sigma, St. Louis, MO, United States) and soybean trypsin inhibitor (Sigma) to stop trypsinization, and the remaining tissue pieces were pelleted by centrifugation. Cells were then washed in Krebs-Ringer buffer containing Ca^2+ and Mg^2+ and re-suspended in appropriate Neurobasal^TM medium (Invitrogen, Taastrup, Denmark) with supplements depending on the experiment.
To evaluate the involvement of NCAM and RET in neurite outgrowth induced by either ARTN or artefin, CGNs (3 × 10^6 per transfection) were transfected with 3 μg DNA using a Nucleofector^TM 2b device and a Rat Neuron Nucleofector Kit (Amaxa, Inc., Gaithersburg, MD, United States). A kinase-deleted dominant negative RET insert was obtained by direct PCR using a commercially available clone (IRAKp961P02132Q; RZPD, Berlin, Germany) encoding full-length mouse RET coding sequence 586–3807 nt. as template. The upper primer […] contained a NheI restriction site and Kozak sequence, and the lower primer […] encoded Streptag II and NotI restriction sites. The dominant negative RET insert and the pcDNA5/FRT expression vector containing the Flp-In system were cut with NheI and NotI restriction enzymes, purified, ligated using the Rapid DNA Ligation Kit (Roche, Basel, Switzerland), and transfected into One Shot TOP10 E. coli (Invitrogen, Taastrup, Denmark). E. coli colonies containing the dominant negative RET insert were identified by PCR, and one insert-positive colony was used for plasmid purification. The identity of the purified plasmid was verified by restriction cutting and sequencing of the insert. For NCAM knock down, we used a pENTR vector containing the shRNA expression cassette for NCAM knock down ([Hansen et al., 2007]). An empty vector was used as a control. To identify transfected neurons, all transfections were performed as co-transfections with 0.5 μg pEGFP-N1, an expression vector encoding the enhanced variant of green fluorescent protein (GFP; Clontech, Palo Alto, CA, United States). Transfected CGNs were seeded in Neurobasal^TM-A medium supplemented with 2% (v/v) B27, 5% (v/v) FCS, and 2 mM Glutamax at a density of 1 × 10^5 cells/cm^2.
To estimate neurite outgrowth, neurons were fixated 24 h after stimulation and stained with rabbit anti-growth-associated-protein-43 (GAP-43) antibody (Chemicon International, Inc., Temecula, CA, United States) or anti-GFP antibody (for transfection experiment) overnight at 4°C followed by incubation with secondary Alexa-conjugated goat anti-rabbit antibodies (Invitrogen, Taastrup, Denmark). In case of experiments with plasmid transfection, the transfection efficiency was ca. 20% of total cells and the neurite outgrowth was evaluated only in GFP-positive, i.e., transfected, cells. For representative pictures, cells were additionally co-stained with Hoechst 33258.
Computer-assisted fluorescent microscopy was performed using a Nikon Diaphot 300 inverted microscope (Nikon) equipped with a Nikon Plan 20× objective and coupled to a video camera (Grundig Electronics, Germany). For each condition in each experiment, including the experiment with transfections, images of approximately 200 cells were recorded in systematic series of fields of view, and neurite outgrowth was quantified using a stereological approach as previously described ([Rønn et al., 2000]).
FIGURE 7 Neuritogenic effect of ARTN and artefin in (A) dominant negative RET or (B) knock down NCAM-expressing CGNs. […]

[2] = test system: cerebellar granule neurons (CGNs); test: Survival assay of CGNs induced to undergo apoptosis by potassium withdrawal; type: cell-based, Wistar rat; conditions: for neuronal survival in apoptotic medium: 48 h, 5 mM KCl, serially diluted ARTN or artefin, paired t-test; for maximal neuroprotective effect / maximum level of neuronal survival: control 40 mM KCl = 100%, mean of five experiments
Method: as §1
Cerebellar granule neurons were re-suspended in Neurobasal^TM-A medium supplemented with 2% (v/v) B27 (Invitrogen, Taastrup, Denmark), 0.5% (v/v) glutamax, 100 U/ml penicillin, 100 μg/ml streptomycin, and 40 mM KCl, and seeded at a density of 1 × 10^5 cells/well in 8-well LabTek Permanox chamber slides (Nunc, Roskilde, Denmark) coated with poly-L-lysine (10 μg/ml). To avoid proliferation of non-neuronal cells, cytosine-β-D-arabinofuranoside (Sigma) was added to cells 24 h after plating. CGNs were allowed to differentiate for 7 days in vitro (DIV) in the presence of 40 mM KCl before being induced to undergo apoptosis by changing the medium to one containing only 5 mM KCl (apoptotic medium) ([D’Mello et al., 1993]). At 7 DIV, cells were washed and stimulated with serially diluted ARTN or artefin diluted in the apoptotic medium. Three different controls were included; (1) cells grown in medium containing 40 mM KCl served as a positive control; (2) cells grown in medium containing 5 mM KCl served as a negative control; (3) cells grown in medium containing 5 mM KCl supplemented with 50 ng/ml insulin growth factor-1 (IGF-1) (Life Technology), a known anti-apoptotic factor for CGNs in this setup ([Galli et al., 1995]). After 48 h following the induction of apoptosis, cells were fixated in 4% formaldehyde for 30 min, and nuclear morphology was visualized with Hoechst 33258 staining (Invitrogen, Taastrup, Denmark) (Figure 2A). Images of cells were obtained using a Nikon Diaphot 200 fluorescent microscope equipped with a Nikon Plan 40× objective (Nikon, Tokyo, Japan) and coupled to a black-white video camera. Images of at least 1000 cells/well in different fields of view were analyzed, and the percentage of viable neurons was estimated as the ratio of live cells (non-pyknotic cells with dispersed chromatin) to the total number of neurons.
FIGURE 2 Effect of ARTN and artefin on survival of cerebellar granular neurons (CGNs) induced to undergo apoptosis. CGNs were differentiated for 7 days in the presence of 40 mM KCl before apoptosis was induced by potassium withdrawal. (A) Nuclear morphology of CGNs after Hoechst 33258 staining. […] Scale bar: 100 μm. Cells were grown for 48 h in media, containing 40 mM KCl, apoptotic medium (5 mM KCl) or apoptotic medium supplemented with 50 ng/ml IGF-1 (positive control) (B), serially diluted ARTN (C), or artefin (D). Each experiment was performed in the presence of the three controls (40 mM KCl, 5 mM KCl, and 5 mM KCl plus IGF-1), and the survival effect of the growth factor and the peptide was compared to its own apoptotic control (5 mM KCl). Results from the five experiments are expressed as percentage of 40 mM KCl control set at 100% and presented as mean ± SEM. The anti-apoptotic effect of ARTN and artefin was tested using Student’s paired t-test, where ^∗p < 0.05; ^∗∗p < 0.01; ^∗∗∗p < 0.001; ^∗∗∗∗p < 0.0001.

[3] = 48 h in apoptotic medium (5 mM KCl)

Row | Molecule | neurite outgrowth in dnRET-transfected neurons [1] | neurite outgrowth in mock-transfected neurons [1] | neuronal survival in apoptotic medium [2] | concentration of maximum neuronal survival [2, 3] [µM] | maximal neuroprotective effect / maximum level of neuronal survival [2, 3] | concentration of maximal neuroprotective effect [2, 3] [pM]
1 | I: RSPHDLSLASLLGAGKK-NH2 / II: RSPHDLSLASLLGAGK / III: RSPHDLSLASLLGAG / IV: RSPHDLSLASLLGAG (amide I:16-IV:C, I:17-II:C, II:16-III:C; C-terminus assumed) [artefin] | abrogated in dnRET-transfected neurons (p < 0.01 versus artefin alone | significantly increased neurite outgrowth in mock-transfected neurons (p < 0.01 versus control) | significantly promoted neuronal survival | 0.156 | 72.95 % of control | –
2 | B1 | abolished in neurons expressing dnRET (p < 0.05 versus ARTN alone | significantly increased by ARTN in mock-transfected neurons (p < 0.05 versus control) | promoted the survival of CGNs in culture in a dose-dependent manner | – | 68.3 % of control | 4
